Results from patent publication US10029994B2, “Isoxazole hydroxamic acid compounds as LpxC inhibitors” (priority 2014, dated 2018).
pIC50: −log10 of the molar value.

How the values were obtained:
[1] = system: E. C. ATCC 29522; assay: MIC in the presence of sub-inhibitory rifampicin (potentiation/synergy); format: cell-based, Escherichia coli; conditions: +2 μg/ml rifampicin (RIF); broth microdilution, 35° C., 20 hours
Experimental: (§1) Bacterial isolates were cultivated from −70° C. frozen stocks by two consecutive overnight passages at 35° C. in ambient air on 5% blood agar (Remel, Lenexa, Kans.). Quality control strain, P. aeruginosa ATCC 27853, A. baumannii ATCC19606 and E. coli ATCC 25922 are from the American Type Culture Collection (ATCC; Rockville, Md.) and PAO1 was received from Dr. K. Poole.
(§2) Minimal Inhibitory Concentrations (MICs) were determined by the broth microdilution method in accordance with Clinical and Laboratories Institute (CLSI) guidelines (CLSI M100-S25, Performance Standards for Antimicrobial Susceptibility Testing; Twenty-fifth Informational Supplement). In brief, fresh bacterial overnight cultures were resuspended in sterile saline, adjusted to a 0.5 McFarland turbidity standard and then diluted 2000-fold in cation adjusted Mueller-Hinton Broth II (MHB; Remel BBL) to yield a final inoculum of approximately 5×10^5 colony-forming units (CFU)/mL. Two-fold serial dilutions of compounds were prepared in 100% dimethyl sulfoxide (DMSO) at 100-fold the highest final assay concentration; the resulting dilution series of compounds were diluted 1:10 with sterile water. Ten μl of the drug dilution series in 10% DMSO was transferred to microtiter wells and 90 μl of bacterial suspension was inoculated into the wells. For testing the ability of compounds to potentiate the activity of known antibiotics, the assay was modified as follows; known antibiotics were added to the bacterial inoculum at 1.1-fold the final assay concentration indicated in Table A. All inoculated microdilution trays were incubated in ambient air at 35° C. for 20 hours. Following incubation, assay plates were read in a microtiter plate reader at 600 nm and visually inspected to confirm the MIC endpoint well with the OD value. The lowest concentration of the compound that prevented visible growth was recorded as the MIC. Performance of the assay was monitored by testing ciprofloxacin against the laboratory quality control strain in accordance with guidelines of the CLSI.

[2] = system: A. B. ATCC 19606; assay: MIC, broth microdilution (CLSI); format: cell-based, Acinetobacter baumannii; conditions: Acinetobacter baumannii, ATCC19606; broth microdilution, 35° C., 20 hours; read-out: A. B. ATCC 19606 MIC
Experimental: as §1, §2

[3] = system: P. A. PAO1 NB52019; assay: MIC, broth microdilution (CLSI); format: cell-based, Pseudomonas aeruginosa; conditions: Pseudomonas aeruginosa, PAO1; broth microdilution, 35° C., 20 hours; read-out: P. A. PAO1 NB52019 MIC
Experimental: as §1, §2

[4] = system: E. C. ATCC 25922; assay: MIC, broth microdilution (CLSI); format: cell-based, Escherichia coli; conditions: Escherichia coli, ATCC25922, 20 h, broth microdilution, 35° C., 20 hours; read-out: E. C. ATCC 25922 MIC
Experimental: as §1, §2

[5] = system: A. B. ATCC 19606; assay: MIC in the presence of sub-inhibitory rifampicin (potentiation/synergy); format: cell-based, Acinetobacter baumannii; conditions: +2 μg/ml rifampicin (RIF); broth microdilution, 35° C., 20 hours
Experimental: as §1, §2

[6] = target: T1, P. aeruginosa LpxC (Pseudomonas aeruginosa, UniProt P47205); assay: P. aeruginosa LpxC Inhibition Assay (LC-MS/MS); format: biochemical; conditions: 1 nM P. aeruginosa LpxC, 30 min pre-incubation, 2 μM UDP-3-O-(R-3-hydroxydecanoyl)-GlcNAc, pH 7.5
T1 construct: made in house
T1 sequence (P47205 1-303): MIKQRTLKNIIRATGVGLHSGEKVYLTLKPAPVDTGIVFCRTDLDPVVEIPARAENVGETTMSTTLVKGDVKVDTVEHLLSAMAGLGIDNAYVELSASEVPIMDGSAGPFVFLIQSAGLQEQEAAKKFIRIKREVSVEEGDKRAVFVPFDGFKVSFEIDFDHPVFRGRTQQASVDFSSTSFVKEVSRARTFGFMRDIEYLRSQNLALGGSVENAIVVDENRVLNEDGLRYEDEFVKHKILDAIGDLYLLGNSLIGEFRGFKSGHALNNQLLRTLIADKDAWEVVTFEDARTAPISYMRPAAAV
Excerpt: P. aeruginosa LpxC Inhibition Assay
The P. aeruginosa LpxC protein is produced according to the general method of Hyland et al (Journal of Bacteriology 1997 179, 2029-2037: Cloning, expression and purification of UDP-3-O-acyl-GlcNAc deacetylase from Pseudomonas aeruginosa: a metalloamidase of the lipid A biosynthesis pathway). The LC-MS/MS method for quantitation of LpxC product was developed using an Agilent 1200 Capillary HPLC system coupled to an Applied Biosystems MDS Sciex 4000QTRAP mass spectrometer. Both instruments are controlled using the Applied Biosystems MDS Sciex Analyst software. LpxC reaction product (UDP-3-O—(R-3-hydroxyacyl)-glucosamine) was produced by hydrolysis of LpxC substrate catalyzed by P.a. LpxC and purified using reversed phase chromatography on a Phenomenex Luna C18(2) 4.6×50 mm column. An LpxC product calibration curve was generated to evaluate the sensitivity and dynamic range of the LC-MS/MS method. Briefly, compounds are pre-incubated with 1 nM P. aeruginosa LpxC for 30 min. at room temperature. Reactions are initiated by the addition of 2 μM UDP-3-O—(R-3-hydroxydecanoyl)-GlcNAc. Reactions are conducted in a 384-well plate with a total volume of 50 μL in each well containing 50 mM Sodium phosphate pH 7.5, 0.005% Trition X-100 for 20 min at room temperature. After quenching with 1.8% HOAc (5 μL of a 20% HOAc added to each well), reaction mixtures are analyzed using the LC-MS/MS method and peak areas are transformed into product concentration using a LpxC product calibration curve. Total activity (0% inhibition control) is obtained from reactions with no inhibitors and 100% inhibition control is the background using quenched samples before reaction starts. For IC50 determinations, peak areas are converted to percent inhibition in Microsoft Excel. Percent inhibition values are plotted vs. log compound concentration using XLfit. Data is fit to the four-parameter logistic equation using the non-linear regression algorithm in XLfit to return the IC50 and hill slope values.

Structure (SMILES) | E. C. ATCC 29522 (+2 μg/ml RIF) MIC [1] | MIC [2] | MIC [3] | MIC [4] | A. B. ATCC 19606 (+2 μg/ml RIF) MIC [5] | pIC50 [6]
C[C@@](CCc1cc(C#CCCC(F)F)on1)(C(=O)NO)S(C)(=O)=O [Compound 1.11, (R)-4-(5-(5,5-Difluoropent-1-yn-1-yl)isoxazol-3-yl)-N-hydroxy-2-methyl-2-(methylsulfonyl)butanamide] | 0.5 µg/mL | > 64 µg/mL | 1 µg/mL | 32 µg/mL | 1 µg/mL | 9.00
CCC#Cc1cc(CC[C@](C)(C(=O)NO)S(C)(=O)=O)no1 [Compound 1.5, (R)-4-(5-(but-1-yn-1-yl)isoxazol-3-yl)-N-hydroxy-2-methyl-2-(methylsulfonyl)butanamide] | ≤0.06 µg/mL | > 64 µg/mL | 0.25 µg/mL | 4 µg/mL | ≤0.06 µg/mL | 9.00
CC1(C#Cc2cc(CC[C@](C)(C(=O)NO)S(C)(=O)=O)no2)CC1 [Compound 1.8, (R)—N-hydroxy-2-methyl-4-(5-((1-methylcyclopropyl)ethynyl)isoxazol-3-yl)-2-(methylsulfonyl)butanamide] | 0.25 µg/mL | > 64 µg/mL | 0.25 µg/mL | 8 µg/mL | ≤0.06 µg/mL | > 9.00
CC#Cc1cc(CC[C@](C)(C(=O)NO)S(C)(=O)=O)no1 [Compound 1.4, (R)—N-hydroxy-2-methyl-2-(methylsulfonyl)-4-(5-(prop-1-yn-1-yl)isoxazol-3-yl)butanamide] | ≤0.06 µg/mL | > 64 µg/mL | 0.25 µg/mL | 4 µg/mL | 2 µg/mL | 8.70
C[C@@](CCc1cc(C#CC2CC(F)(F)C2)on1)(C(=O)NO)S(C)(=O)=O [Compound 1.12, (R)-4-(5-((3,3-difluorocyclobutyl)ethynyl)isoxazol-3-yl)-N-hydroxy-2-methyl-2-(methylsulfonyl)butanamide] | 0.25 µg/mL | > 64 µg/mL | 0.5 µg/mL | 16 µg/mL | ≤0.06 µg/mL | > 9.00
CC(C)(O)CCC#Cc1cc(CC[C@](C)(C(=O)NO)S(C)(=O)=O)no1 [Compound 1.14, (R)—N-hydroxy-4-(5-(5-hydroxy-5-methylhex-1-yn-1-yl)isoxazol-3-yl)-2-methyl-2-(methylsulfonyl)butanamide] | 16 µg/mL | > 64 µg/mL | 8 µg/mL | > 64 µg/mL | ≤0.06 µg/mL | 8.70
C[C@@](CCc1cc(C#CC2CCC2)on1)(C(=O)NO)S(C)(=O)=O [Compound 1.2, (R)-4-(5-(cyclobutylethynyl)isoxazol-3-yl)-N-hydroxy-2-methyl-2-(methylsulfonyl)butanamide] | ≤0.06 µg/mL | > 64 µg/mL | 0.125 µg/mL | 2 µg/mL | ≤0.06 µg/mL | > 9.00
C[C@@](CCc1cc(C#CCCF)on1)(C(=O)NO)S(C)(=O)=O [Compound 1.9] | 0.125 µg/mL | > 64 µg/mL | 1 µg/mL | 32 µg/mL | 1 µg/mL | 8.52
C[C@@](CCc1cc(/C(F)=C/C2CC2)on1)(C(=O)NO)S(C)(=O)=O [Compound 4.5-1, (R,Z)-4-(5-(2-cyclopropyl-1-fluorovinyl)isoxazol-3-yl)-N-hydroxy-2-methyl-2-(methylsulfonyl)butanamide] | 0.25 µg/mL | > 64 µg/mL | 0.25 µg/mL | 2 µg/mL | 0.25 µg/mL | > 9.00

Other lines, results leading:

E. C. ATCC 29522 (+2 μg/ml RIF) MIC [1] | MIC [2] | MIC [3] | MIC [4] | A. B. ATCC 19606 (+2 μg/ml RIF) MIC [5] | pIC50 [6] | Structure (SMILES)
≤0.06 µg/mL | > 64 µg/mL | 0.5 µg/mL | 2 µg/mL | 2 µg/mL | > 9.00 | CC(CCc1cc(C#Cc2ccc(CO)cc2)on1)(C(=O)NO)S(C)(=O)=O (stereo not drawn) [Compound 2.1, N-hydroxy-4-(5-((4-(hydroxymethyl)phenyl)ethynyl)isoxazol-3-yl)-2-methyl-2-(methylsulfonyl)butanamide]
0.5 µg/mL | 64 µg/mL | 4 µg/mL | 2 µg/mL | 0.125 µg/mL | 8.70 | CC(NCc1cc(C#CC2CC2)on1)(C(=O)NO)C(O)c1cc(C2CC2)on1 (stereo not drawn) [Compound 3.6, 2-(((5-(cyclopropylethynyl)isoxazol-3-yl)methyl)amino)-3-(5-cyclopropylisoxazol-3-yl)-N, 3-dihydroxy-2-methylpropanamide]
≤0.06 µg/mL | 64 µg/mL | 0.5 µg/mL | 0.5 µg/mL | ≤0.06 µg/mL | > 9.00 | CC(CCc1cc(C#Cc2ccccc2)on1)(C(=O)NO)S(C)(=O)=O (stereo not drawn) [Compound 2.4, N-hydroxy-2-methyl-2-(methylsulfonyl)-4-(5-(phenylethynyl)isoxazol-3-yl)butanamide]
2 µg/mL | 32 µg/mL | 16 µg/mL | 16 µg/mL | 1 µg/mL | 8.52 | COCCCCC#Cc1cc(CN[C@](C)(C(=O)NO)[C@@H](O)c2cc(C)on2)no1 [Compound 3.5, (2S,3R)—N,3-dihydroxy-2-(((5-(6-methoxyhex-1-yn-1-yl)isoxazol-3-yl)methyl)amino)-2-methyl-3-(5-methylisoxazol-3-yl)propanamide]
0.125 µg/mL | > 64 µg/mL | 0.25 µg/mL | 1 µg/mL | 6 µg/mL | > 9.00 | C[C@@](CCc1cc(C#Cc2ccc([C@H](O)CO)cc2)on1)(C(=O)NO)S(C)(=O)=O [Compound 2.7, (R)-4-(5-((4-((S)-1,2-dihydroxyethyl)phenyl)ethynyl)isoxazol-3-yl)-N-hydroxy-2-methyl-2-(methylsulfonyl)butanamide]
